Data taken from paper PMC12162926, “A novel strategy for identifying hepatotoxic constituents in traditional Chinese medicine using dose-normalized intracellular accumulation as a cytotoxicity indicator: a case study of Jinlingzi San” (Frontiers in Pharmacology, 2025).

Legend:
[1] = Stability of analytes in cell lysates (LC–MS/MS method validation); format: physicochemical; details: n=3; for Post-preparation stability RE%: 4 ℃, 24 h at autosampler; for Short-term stability RE%: 12 h at room temperature; for Long-term stability RE%: -80℃ for a month; for Freeze-thaw stability RE%: three freeze-thaw
Method: The stability of seven analytes including short-term stability (12 h at room temperature), post-preparation stability at 4 ℃ (24 h at autosampler), freeze-thaw stability (three freeze-thaw stability) and long-term stability (-80℃ for a month) was tested by analyzing three replicates at low and high QC levels during various sample storage and handling process.

L-02 cells [2] = assay: Intracellular identification of L-02 cell-uptake components by LC–MS/MS; format: in vitro ADME, human; details: L-02 exposed to JLZS-containing medium 6.5 mg/mL for 2 h
Method: The powder of 25 g FT and 25 g RC was evenly blended and then refluxed twice with six-fold 50% ethanol (1: 6, w/v) for 1 h; the collected filtrate was evaporated to dryness and further dissolved in DMSO, after filtering using the 0.22-µm cellulose acetate membrane. JLZS-containing medium (6.5 mg/mL) was freshly prepared by diluting the filtrate with RPMI-1640. Likewise, RC-containing medium was freshly prepared in the same method independently.
L-02 cells were seeded on 9-cm-diameter cell culture plates; after ∼80% confluent, the cultured cells were incubated with 6.5 mg/mL JLZS-containing medium. After 2-h exposure, L-02 cells were quickly washed free of culture medium with cold PBS (−) twice and harvested with 1 mL of 0.25% trypsin-EDTA for cell isolation. The cell suspension (∼5 × 10^6 cells) was spun down, and the cells were further washed twice in cold PBS (−). Then, 200 µL of methanol was used to lyse the collected cells with vortex mixing for 1 min. The cell lysates were centrifuged at 12,000 rpm for 4 min, and 10 μL of the centrifugal supernatant was injected into the LC–MS/MS system for identified analysis.
The LC–MS/MS system consisted of a Thermo TSQ Quantum Ultra triple-quadrupole mass spectrometer equipped with an electrospray ionization source (San Jose, CA, United States). LCquan quantitation software (version 2.5.6, Thermo Fisher Scientific, Waltham, MA, USA) was used to control the LC–MS/MS system for data acquisition and analysis. Analytes and IS separation were conducted using a Waters XTerra® MS C18 column (3.0 mm × 50 mm, 5 µm) maintained at 20 °C. By injecting 5 µL samples with a flow rate of 0.2 mL/min, chromatographic separation was achieved using a mobile phase of 0.1% formic acid–water (A) and methanol (B) via gradient elution, 0.0–2.0 min, 35%–50% B; 2.0–2.1 min, 50%–55% B; 2.1–2.5 min, 55%–60% B; 2.5–14.0 min, 60% B. The analytes and IS were detected in the ESI source by polarity switching from positive for 0.0–8.0 min to negative-ion modes for 8.5–14.0 min in a single run with multiple reaction monitoring (MRM).

L-02 cells [3] = assay: Intracellular accumulation in L-02 cells by LC–MS/MS; format: in vitro ADME, human; details: L-02, JLZS extracts 6.5 mg/mL, n = 6
[4] = design: method as in Gu et al., 2021; details: pharmacokinetic level, JLZS vs single herb; ref Gu et al., 2021; cited from earlier work
L-02 cells [5] = assay: Cell growth inhibition assay (CCK-8); format: cell-based, human; details: L-02, 24 h exposure, single compounds

SMILES: COc1cc2c(cc1OC)-c1c(C)c3ccc(OC)c(OC)c3c[n+]1CC2 [DHC, dehydrocorydaline]
- Post-preparation stability RE% ([1]; high QC level): 6.6%
- Post-preparation stability RE% ([1]; low QC level): -0.2%
- Short-term stability RE% ([1]; high QC level): 8.8%
- Short-term stability RE% ([1]; low QC level): -2.4%
- Long-term stability RE% ([1]; high QC level): 1.3%
- Long-term stability RE% ([1]; low QC level): 2.3%
- Freeze-thaw stability RE% ([1]; high QC level): 0.4%
- Freeze-thaw stability RE% ([1]; low QC level): -0.6%
- detection in cell lysates (L-02 cells [2]): found in the cell lysates
- Intracellular concentration (L-02 cells [3]; time 0.25 h): 15.2 ± 2.9 ng/mL
- Intracellular concentration (L-02 cells [3]; time 0.5 h): 26.1 ± 3.0 ng/mL
- Intracellular concentration (L-02 cells [3]; time 1 h): 53.1 ± 4.0 ng/mL
- Intracellular concentration (L-02 cells [3]; time 1.5 h): 71.9 ± 5.5 ng/mL
- Intracellular concentration (L-02 cells [3]; time 2 h): 74.8 ± 6.2 ng/mL
- Intracellular concentration (L-02 cells [3]; time 3 h): 82.0 ± 7.5 ng/mL
- Intracellular concentration (L-02 cells [3]; time 5 h): 122.0 ± 8.7 ng/mL
- Intracellular concentration (L-02 cells [3]; time 8 h): 98.2 ± 9.6 ng/mL
- elimination in the JLZS group compared with the single-herb group [4]: decreased significantly
- IC50 (cell viability) (L-02 cells [5]): not detected IC50 values within the set concentration range
